Data taken from US11028051B2, “Tetrahydroquinoline-based bromodomain inhibitors” (St. Jude Children's Research Hospital, priority 2016, dated 2021).
Read-outs that look alike come from different tables or passages of the source.

Key:
BRD2-BD2 [1] = target: T1, BRD2-BD2 (Homo sapiens (Human), UniProt P25440); experiment: surface plasmon resonance analysis of binding; conditions: SPR, BRD2(2)
Experimental: a. Surface Plasmon Resonance (Biacore) Analysis of Binding to Brd2-BD1 and Brd2-BD2
SPR experiments were conducted at 15° C. using a SensiQ Pioneer optical biosensor (SensiQ Technologies). Poly-His tagged BRD2 constructs were immobilized on polycarboxylate-coated gold chips preimmobilized with nitrilotriacetic acid (His-Cap chips; SensiQ Technologies) by capture-coupling, a hybrid method of capture and amine coupling chemistry (Ref. A). The His-Cap chip was preconditioned and charged with Ni^2+ in equilibration buffer (10 mM HEPES pH 7.4, 150 mM NaCl, 50 μM EDTA, 0.005% Tween20) at a flow rate of 10 μL/min. The chip was washed with three 60 s injections of regeneration buffer (10 mM HEPES pH 8.3, 150 mM NaCl, 350 mM EDTA, 0.05% Tween20) and one 60 s injection of equilibration buffer and was charged with a 60 s injection of 500 mM NiCl2 in equilibration buffer, which added ˜55 RU of Ni^2+ per channel. […]
A series of buffer-only (blank) injections was included throughout the experiment to account for instrumental noise. The data were processed, double-referenced, solvent corrected and analyzed using the software package Qdat (version 2.5.3.5, SensiQ Technologies) (Ref B). The kinetic rate constants were determined by globally fitting the data to a 1:1 interaction model. Equilibrium dissociation constants (KD) were calculated as the quotient kd/ka.

[2] = test system: c-Myc expression in HDMB03 cells; experiment: c-Myc expression inhibition, high content microscopy (HCM); format: cell-based, human; conditions: Homo sapiens, read-out: EC50 (μM) Myc-inhibition
Experimental: 3000 human G3 medulloblastoma or 2000 mouse SHH medulloblastoma cells per well were plated into 384-well plates (6007710, Perkin Elmer) in 30 μL of supplemented neurobasal medium using a Wellmate automated dispenser (Thermo Matrix). After 24 hours, 125 nl of compound was transferred via pin tool, resulting in a final drug concentration from 2 nM to 40 μM. 72 hours after adding the drug, the plates were fixed with 4% formaldehyde for 20 min. After fixation the cells were then washed 3 times with 75 μl of PBS. The cells were then permeabilized with 0.1% Triton-X 100 for 15 minutes at 25° C. and blocked using 1% BSA in PBS for 1 hour at 25° C. The primary antibody against c-Myc Ab (#9402, Cell Signaling) at a 1:400 dilution was diluted in 1% BSA in PBS. This mixture was added to each well before incubation overnight at 4° C. Each well was then washed 3 times with PBS using a Biotek ELX405 Select plate washer, and incubated for 1 hour at 25° C. with a solution containing 1/400 goat α-rabbit-Alexa-488 (4412S, Cell Signaling) and 1 μM Hoechst 33342 to detect nuclear material (H3570, Molecular Probes). Two images were captured of each well at 10× using a GE Healthcare InCell 6000 at 405 nM to detect nuclear staining and 488 nM to detect c-Myc. All data were analyzed using the multi-target analysis algorithm of the GE InCell Analyzer Workstation software. The number of nuclear objects in each well, as well as all nuclear measurements, was determined through nuclear masks over the Hoechst staining. C-Myc staining was then measured using top-hat segmentation in the entire cell.

[3] = test system: neural crest tumor cell lines; experiment: activity versus neural crest tumor cell lines; format: cell-based; conditions: several neural crest tumor cell lines; read-out: IC50 ranges
BRD4-BD2 = BRD4-BD2 (Homo sapiens (Human), UniProt O60885); experiment: competitive TR-FRET assay, BET-BD with acetylated peptide ligand; format: binding
Experimental: (§1) Inhibitor potency was determined using a competitive TR-FRET assay as detailed herein, measuring interaction of the respective BET-BD with an acetylated peptide ligand (Table 2).

BRDT = BRDT (Homo sapiens, UniProt Q58F21); experiment: as above; format: binding
Experimental: as §1

BRD2-BD1 = BRD2-BD1 (Homo sapiens (Human), UniProt P25440); experiment: as above; format: binding; conditions: read-out: EC50 (μM) BRD2(1)
Chain of BRD2-BD1 (P25440 74-180): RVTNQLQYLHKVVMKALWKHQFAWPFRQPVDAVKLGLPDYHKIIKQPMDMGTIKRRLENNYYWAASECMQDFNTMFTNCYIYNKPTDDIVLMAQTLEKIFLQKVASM
Experimental: as §1

BRD2-BD2 [4] = target: T1, BRD2-BD2; experiment: as above; format: binding; conditions: for EC50: read-out: EC50 (μM) BRD2(2)
Experimental: as §1

BRD4-BD1 = BRD4-BD1 (Homo sapiens (Human), UniProt O60885); experiment: as above; format: binding; conditions: Table 4; read-out: EC50 (μM) BRD4(1)
Experimental: as §1

BRD3-BD1 = BRD3-BD1 (Homo sapiens (Human), UniProt Q15059); experiment: as above; format: binding
Chain of BRD3-BD1 (Q15059 34-140): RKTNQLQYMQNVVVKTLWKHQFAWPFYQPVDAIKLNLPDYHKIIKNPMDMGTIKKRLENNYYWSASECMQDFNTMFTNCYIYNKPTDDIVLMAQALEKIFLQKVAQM
Experimental: as §1

BRD3(2) = BRD3(2) (Homo sapiens (Human), UniProt Q15059); experiment: BROMOscan KD determination; format: binding
Chain of BRD3(2) (Q15059 306-415): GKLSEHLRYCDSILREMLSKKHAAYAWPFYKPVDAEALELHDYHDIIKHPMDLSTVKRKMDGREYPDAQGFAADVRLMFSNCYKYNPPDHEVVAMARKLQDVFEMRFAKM
Source text: (§2) DiscoverX® can screen compounds against all ˜42 bromodomains (a service called BROMOscan) and perform follow-up KD determination. This service is considered the industrial standard for bromodomain inhibitor comparisons.

BRD4(1) = BRD4(1) (Homo sapiens (Human), UniProt O60885); experiment: BROMOscan KD determination; format: binding; conditions: Table 10
Source text: as §2

BRD4(2) = BRD4(2) (Homo sapiens (Human), UniProt O60885); experiment: BROMOscan KD determination; format: binding
Source text: as §2

BRD3(1) = BRD3(1) (Homo sapiens (Human), UniProt Q15059); experiment: BROMOscan KD determination; format: binding; conditions: Table 10
Chain of BRD3(1) (Q15059 34-140): as the sequence (Q15059 34-140) above
Source text: as §2

T1 sequence (P25440 344-453): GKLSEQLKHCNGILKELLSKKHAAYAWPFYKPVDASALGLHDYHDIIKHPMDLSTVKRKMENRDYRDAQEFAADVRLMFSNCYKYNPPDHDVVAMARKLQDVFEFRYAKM

- Kd (BRD2-BD2 [1]): 13 nM
- EC50 ([2]; HD-MB03, Table 5): 0.03 µM
- EC50 ([2]; HD-MB03, Table 7): 1.3 µM
- EC50 ([2]; HD-MB03, Table 9, c-Myc expression inhibition in HDMB03 cells): 1.3 µM
- IC50 [3]: 50 to 200 nM
- 4(1)/4(2) (BRD4-BD2; Table 4, ratio of EC50): 20.5
- EC50 (BRD4-BD2; Table 4, read-out: EC50 (μM) BRD4(2)): 0.021 µM
- EC50 (BRDT; Table 4, read-out: BRDT EC50): 4000 nM
- EC50 (BRDT; Table 6, head names no target, BRDT by comparison with Table 4, read-out: EC50): 4000 nM
- EC50 (BRDT; Table 8, head names no target, BRDT by comparison with Table 4, read-out: EC50): 4000 nM
- EC50 (BRD2-BD1; Table 4): 0.43 µM
- EC50 (BRD2-BD1; Table 6): 1.56 µM
- EC50 (BRD2-BD1; Table 8): 1.56 µM
- [2(1)/2(2)] (BRD2-BD2 [4]; Table 4, ratio of EC50): 19.5
- EC50 (BRD2-BD2 [4]; Table 4): 0.022 µM
- [2(1)/2(2)] (BRD2-BD2 [4]; Table 6, ratio of EC50): 14.2
- EC50 (BRD2-BD2 [4]; Table 6): 0.11 µM
- EC50 (BRD2-BD2 [4]; Table 8): 0.11 µM
- EC50 (BRD4-BD1): 0.43 µM
- EC50 (BRD3-BD1; Table 4, read-out: BRD3(1)): 1.1 µM
- EC50 (BRD3-BD1; Table 6, read-out: EC50 (μM) BRD3(1)): 1.1 µM
- EC50 (BRD3-BD1; Table 8, read-out: BRD3(1)): 1.1 µM
- 3(1)/3(2) (BRD3(2); BROMOscan KD ratio): 1.8
- Kd (BRD3(2); BROMOscan, Table 10): 0.39 nM
- Kd (BRD4(1)): 27 nM
- 4(1)/4(2) (BRD4(2); BROMOscan KD ratio): 64.3
- Kd (BRD4(2); BROMOscan, Table 10): 0.42 nM
- Kd (BRD3(1)): 0.72 nM
Structure (SMILES): COC(=O)c1ccc(N[C@@H]2C[C@H](C)N(C(C)=O)c3ccc(-c4cccc(NC(C)=O)c4)cc32)cc1 [compound 4]
